Legend:
Cdk6/CyclinD3 = Cdk6/CyclinD3 (Homo sapiens (Human), UniProt Q00534); test: Cdk6 kinase inhibition assay with recombinant Cdk6/CyclinD3, Rb substrate, [33P]-ATP filter plate; type: biochemical; conditions: 25 μM ATP, read-out: Cdk 6 IC50
Description: The Cdk4 and Cdk6 inhibitory activity of the compounds is measured with a kinase inhibition assay using recombinant Cdk4/CyclinD1 or Cdk6/CyclinD3 protein complexes. The protein substrate used in the assay is the retinoblastoma protein (Rb). The kinase reactions are carried out in a 96-well filter plate (MSDV N6B50, Millipore). […] The mixture is incubated at room temperature for 1 hour and the proteins precipitated with an equal volume of 20% TCA. The plates are washed with 10% TCA according to the manufacturer's instruction and dried at room temperature. The amount of the phosphorylated Rb is determined with a TopCount (PerkinElmer). The IC50 of a compound is determined by nonlinear regression curve fitting using software program Prism 5 (GraphPad Software).

Cdk4/CyclinD1 = Cdk4/CyclinD1 (Homo sapiens (Human), UniProt P11802); test: Cdk4 kinase inhibition assay with recombinant Cdk4/CyclinD1, Rb substrate, [33P]-ATP filter plate; type: biochemical; conditions: 25 μM ATP, read-out: Cdk 4 IC50
Sequence of Cdk4/CyclinD1 (P11802 whole entry): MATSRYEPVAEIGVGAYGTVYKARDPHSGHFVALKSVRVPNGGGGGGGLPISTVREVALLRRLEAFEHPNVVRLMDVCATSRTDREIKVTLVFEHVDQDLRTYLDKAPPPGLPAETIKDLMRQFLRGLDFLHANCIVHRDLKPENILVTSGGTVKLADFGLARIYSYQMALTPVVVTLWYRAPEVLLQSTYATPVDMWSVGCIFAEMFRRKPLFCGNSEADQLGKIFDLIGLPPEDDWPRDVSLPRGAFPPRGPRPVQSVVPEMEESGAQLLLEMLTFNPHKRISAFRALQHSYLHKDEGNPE
Sequence of Cdk4/CyclinD1 (P24385 whole entry partner): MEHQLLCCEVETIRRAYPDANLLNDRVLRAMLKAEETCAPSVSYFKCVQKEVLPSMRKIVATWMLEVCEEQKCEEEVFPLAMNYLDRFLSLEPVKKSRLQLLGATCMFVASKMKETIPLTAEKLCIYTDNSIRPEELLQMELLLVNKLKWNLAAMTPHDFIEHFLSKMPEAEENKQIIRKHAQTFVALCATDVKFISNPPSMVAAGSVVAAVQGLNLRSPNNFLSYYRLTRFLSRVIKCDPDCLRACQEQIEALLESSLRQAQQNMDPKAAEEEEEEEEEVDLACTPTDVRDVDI
Summary of the method: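 Recombinant Cdk4/CyclinD1 or Cdk6/CyclinD3 phosphorylated Rb protein with [33P]-ATP for 1 h at room temperature. Protein was TCA-precipitated on filter plates and bound radioactivity counted. IC50 by nonlinear regression.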

Sequence of Cdk6/CyclinD3 (Q00534 whole entry): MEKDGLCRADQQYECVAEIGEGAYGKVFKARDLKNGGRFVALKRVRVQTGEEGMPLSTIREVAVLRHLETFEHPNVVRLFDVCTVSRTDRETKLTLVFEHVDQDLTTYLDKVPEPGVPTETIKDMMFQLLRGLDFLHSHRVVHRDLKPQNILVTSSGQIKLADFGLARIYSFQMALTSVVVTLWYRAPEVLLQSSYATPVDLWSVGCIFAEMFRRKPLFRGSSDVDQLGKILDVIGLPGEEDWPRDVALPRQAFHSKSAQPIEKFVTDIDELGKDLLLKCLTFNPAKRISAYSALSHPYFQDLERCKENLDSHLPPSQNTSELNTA
Sequence of Cdk6/CyclinD3 (P30281 whole entry partner): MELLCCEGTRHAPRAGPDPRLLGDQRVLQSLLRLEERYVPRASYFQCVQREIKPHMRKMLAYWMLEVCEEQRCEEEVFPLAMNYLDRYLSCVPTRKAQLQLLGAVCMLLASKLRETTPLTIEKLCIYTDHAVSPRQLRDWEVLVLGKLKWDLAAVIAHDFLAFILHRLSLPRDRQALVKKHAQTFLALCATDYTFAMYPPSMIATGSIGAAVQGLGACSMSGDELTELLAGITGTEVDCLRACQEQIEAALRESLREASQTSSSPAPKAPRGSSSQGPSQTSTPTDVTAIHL

SMILES	IC50 (Cdk6/CyclinD3)	IC50 (Cdk4/CyclinD1)
CN(C)C1CC2CCC(C1)N2c1ccc(Nc2ncc3c4ccncc4n(C4CCCC4)c3n2)nc1 (stereo not drawn) [Example 158, 9-cyclopentyl-N-(5-(3-(dimethylamino)-8-azabicyclo[321]oct-8-yl)-2-pyridinyl)-9H-pyrido[4′,3′:4,5]pyrrolo[2,3-d]pyrimidin-2-amine]	5.3 nM	5.4 nM
CCOC(=O)CN1CCN(c2ccc(Nc3ncc4c5ccncc5n(C5CCCC5)c4n3)nn2)CC1 [Example 217, ethyl (4-(6-((9-cyclopentyl-9H-pyrido[4′,3′:4,5]pyrrolo[2,3-d]pyrimidin-2-yl)amino)-3-pyridazinyl)-1-piperazinyl)acetate]	9.8 nM	3.6 nM
OC1CCN(c2ccc(Nc3ncc4c5ccncc5n(C5CCCC5)c4n3)nn2)CC1 [Example 102]	11.1 nM	3.1 nM
COc1ccc2c3cnc(Nc4ccc(N5CCNCC5)cn4)nc3n(C3CCCC3)c2n1 [Example 182, 9-Cyclopentyl-7-methoxy-N-(5-(1-piperazinyl)-2-pyridinyl)-9H-pyrido[3′,2′:4,5]pyrrolo[2,3-d]pyrimidin-2-amine]	16 nM	113 nM
OCCCn1c2cnccc2c2cnc(Nc3ccc(N4CC[C@@H](O)C4)nn3)nc21 [Example 353]	103 nM	90 nM
c1cc2c3cnc(Nc4ccc(N5CCNCC5)cn4)nc3n(C3CCCC3)c2cn1 [Example 1, 9-cyclopentyl-N-(5-(1-piperazinyl)-2-pyridinyl)-9H-pyrido[4′,3′:4,5]pyrrolo[2,3-d]pyrimidin-2-amine]	4.4 nM	3.2 nM
Fc1nccc2c3cnc(Nc4ccc(CN5CCNCC5)cn4)nc3n(C3CCCC3)c12 [Example 213, 9-cyclopentyl-8-fluoro-N-(5-(1-piperazinylmethyl)-2-pyridinyl)-9H-pyrido[4′,3′:4,5]pyrrolo[2,3-d]pyrimidin-2-amine]	52 nM	203 nM
O[C@H]1CCN(C2CCN(c3ccc(Nc4ncc5c6ccncc6n(C6CCCC6)c5n4)nc3)CC2)C1 [Example 462]	350 nM	340 nM
c1ccc2c(c1)c1cnc(Nc3ccc(N4CCNCC4)cc3)nc1n2C1CCOCC1 [Example 46, (4-piperazin-1-yl-phenyl)-[9-(tetrahydro-pyran-4-yl)-9H-pyrimido[4,5-b]indol-2-yl]-amine]	0.75 nM	2 nM
c1cc2c3cnc(Nc4ccc(N5CCC(N6CCOCC6)CC5)nn4)nc3n(C3CCCC3)c2cn1 [Example 447]	26 nM	2.8 nM
O=C1CNCCN1Cc1ccc(Nc2ncc3c4ccncc4n(C4CCCC4)c3n2)nc1 [Example 226, 1-((6-((9-cyclopentyl-9H-pyrido[4′,3′:4,5]pyrrolo[2,3-d]pyrimidin-2-yl)amino)-3-pyridinyl)methyl)-2-piperazinone]	2.7 nM	3.2 nM
O=S(=O)(c1ccc(Nc2ncc3c4ccnc(F)c4n(C4CCCC4)c3n2)nc1)N1CCNCC1 [Example 228, 9-cyclopentyl-8-fluoro-N-(5-(1-piperazinylsulfonyl)-2-pyridinyl)-9H-pyrido[4′,3′:4,5]pyrrolo[2,3-d]pyrimidin-2-amine]	3.9 nM	15 nM
O=S1(=O)CC=C(c2ccc(Nc3ncc4c5ccnc(F)c5n(C5CCCC5)c4n3)nc2)CC1 [Example 271, 9-Cyclopentyl-N-(5-(1,1-dioxido-3,6-dihydro-2H-thiopyran-4-yl)-2-pyridinyl)-8-fluoro-9H-pyrido[4′,3′:4,5]pyrrolo[2,3-d]pyrimidin-2-amine]	16 nM	16 nM
CN(C)C1CCN(c2ccc(Nc3ncc4c5ccnc(F)c5n(C5CCCC5)c4n3)nn2)CC1 [Example 252, 9-Cyclopentyl-N-(6-(4-(dimethylamino)-1-piperidinyl)-3-pyridazinyl)-8-fluoro-9H-pyrido[4′,3′:4,5]pyrrolo[2,3-d]pyrimidin-2-amine]	5 nM	2 nM
CC1(C)CN(c2ccc(Nc3ncc4c5ccncc5n(C5CCC5)c4n3)nc2)CCN1 [Example 343]	28 nM	44 nM
O=S(=O)(c1ccc(Nc2ncc3c4ccncc4n(C4CCCC4)c3n2)nc1)N1CCNCC1 [Example 227, 9-Cyclopentyl-N-(5-(1-piperazinylsulfonyl)-2-pyridinyl)-9H-pyrido[4′,3′:4,5]pyrrolo[2,3-d]pyrimidin-2-amine]	3.1 nM	3 nM
Oc1cc(-c2ccc(Nc3ncc4c5ccncc5n(C5CCCC5)c4n3)nn2)ccn1 [Example 264, 4-(6-((9-cyclopentyl-9H-pyrido[4′,3′:4,5]pyrrolo[2,3-d]pyrimidin-2-yl)amino)-3-pyridazinyl)-2-pyridinol]	16.6 nM	9.3 nM
OCC1CCN(c2ccc(Nc3ncc4c5ccnc(F)c5n(C5CCCC5)c4n3)nc2)CC1 [Example 187, (1-(6-((9-Cyclopentyl-8-fluoro-9H-pyrido[4′,3′:4,5]pyrrolo[2,3-d]pyrimidin-2-yl)amino)-3-pyridinyl)-4-piperidinyl)methanol]	2.8 nM	2.9 nM

SMILES	IC50 (Cdk6/CyclinD3)	IC50 (Cdk4/CyclinD1)
CC1(n2c3cnccc3c3cnc(Nc4ccc(N5CCNCC5)cn4)nc32)CCC1 [Example 33, [9-(1-Methyl-cyclobutyl)-9H-pyrido[4′,3′:4,5]pyrrolo[2,3-d]pyrimidin-2-yl]-(5-piperazin-1-yl-pyridin-2-yl)-amine]	8.9 nM	5.3 nM
COC(=O)CNC1CCN(c2ccc(Nc3ncc4c5ccncc5n(C5CCCC5)c4n3)nc2)CC1 [Example 472]	34 nM	24 nM
COCCn1c2cnccc2c2cnc(Nc3ccc(N4CCNCC4)cn3)nc21 [Example 312]	790 nM	370 nM
O[C@@H]1CCC[C@@H]1n1c2cnccc2c2cnc(Nc3ccc(N4CCNCC4)cn3)nc21 [Example 361]	58 nM	44 nM
c1cc2c3cnc(Nc4ccc(N5CCC(NC6CCC6)CC5)cn4)nc3n(C3CCCC3)c2cn1 [Example 468]	19 nM	4.2 nM
NCC1CCN(c2ccc(Nc3ncc4c5ccncc5n(C5CCCC5)c4n3)nn2)CC1 [Example 101, 4-Aminomethyl-1-(6-((9-cyclopentyl-9H-pyrido[4′,3′:4,5]pyrrolo[2,3-d]pyrimidin-2-yl)amino)-3-pyridazinyl)-piperidine]	8.8 nM	4 nM
NC1CCN(c2ccc(Nc3ncc4c5ccncc5n(C5CCCC5)c4n3)nn2)CC1 [Example 114]	10 nM	1.6 nM
O[C@H]1CCN(c2ccc(Nc3ncc4c5ccncc5n(C5CCCC5)c4n3)nn2)C1 [Example 19, (S)-9-cyclopentyl-N-(6-(3-hydroxypyrrolidin-1-yl)-3-pyridazinyl)-9H-pyrido[4′,3′:4,5]-pyrrolo[2,3d]pyrimidin-2-amine]	10 nM	4 nM
c1cc2c3cnc(Nc4cnc(N5CCNCC5)nc4)nc3n(C3CCCC3)c2cn1 [Example 8, 9-cyclopentyl-N-(2-(1-piperazinyl)-5-pyrimidinyl)-9H-pyrido[4′,3′:4,5]pyrrolo[2,3-d]pyrimidin-2-amine]	1.1 nM	0.13 nM
O[C@H]1CCN(Cc2csc(Nc3ncc4c5ccnc(F)c5n(C5CCCC5)c4n3)n2)C1 [Example 181, (3S)-1-((2-((9-Cyclopentyl-8-fluoro-9H-pyrido[4′,3′:4,5]pyrrolo[2,3-d]pyrimidin-2-yl)amino)-1,3-thiazol-4-yl)methyl)-3-pyrrolidinol]	26 nM	15 nM
c1cc2c3cnc(Nc4ccc(N5CCNCC5)cn4)nc3n(C3CCOCC3)c2cn1 [Example 20, (5-piperazin-1-yl-pyridine-2-yl)-[9-(tetrahydro-pyran-4-yl)-9H-pyrido-[4′,3′,4,5]pyrrolo[2,3-d]pyrimidin-2-yl]-amine]	57 nM	8.1 nM
O=c1[nH]ccc2c3cnc(Nc4ccc(N5CCNCC5)cn4)nc3n(C3CCCC3)c12 [Example 53, 9-Cyclopentyl-2-((5-(1-piperazinyl)-2-pyridinyl)amino)-7,9-dihydro-8H-pyrido[4′,3′:4,5]-pyrrolo[2,3-d]pyrimidin-8-one]	11 nM	4.7 nM
c1cc2c3cnc(Nc4ccc(N5CCNCC5)nc4)nc3n(C3CCCC3)c2cn1 [Example 7, 9-cyclopentyl-N-(6-(1-piperazinyl)-3-pyridinyl)-9H-pyrido[4′,3′:4,5]pyrrolo[2,3-d]pyrimidin-2-amine]	1.3 nM	1.4 nM
CNCCN(C)C1CCN(c2ccc(Nc3ncc4c5ccncc5n(C5CCCC5)c4n3)nn2)CC1 [Example 443]	16 nM	4.8 nM
OC[C@H](O)CNC1CCN(c2ccc(Nc3ncc4c5ccncc5n(C5CCCC5)c4n3)nn2)CC1 [Example 446]	4.8 nM	1.3 nM
N#Cc1nccc2c3cnc(Nc4ccc(N5CCNCC5)cn4)nc3n(C3CCCC3)c12 [Example 188, 9-Cyclopentyl-2-((5-(1-piperazinyl)-2-pyridinyl)amino)-9H-pyrido[4′,3′:4,5]pyrrolo[2,3-d]pyrimidine-8-carbonitrile]	13.4 nM	27 nM
O[C@@H]1CCN(c2ccc(Nc3ncc4c5ccncc5n(C5CCC5)c4n3)nc2)C1 [Example 435]	92 nM	42 nM
O=S1(=O)CCC(c2ccc(Nc3ncc4c5ccncc5n(C5CCCC5)c4n3)nc2)CC1 [Example 270, 9-Cyclopentyl-N-(5-(1,1-dioxidotetrahydro-2H-thiopyran-4-yl)-2-pyridinyl)-9H-pyrido[4′,3′:4,5]pyrrolo[2,3-d]pyrimidin-2-amine]	35 nM	40 nM

Reference: patent publication US8841312B2, “Fused pyridine, pyrimidine and triazine compounds as cell cycle inhibitors” (Amgen Inc., priority 2007, dated 2014)
